In patent US20170008928A1, “NOVEL PEPTIDES AND PEPTIDE DERIVATIVES AND USES THEREOF” (Novo Nordisk A/S, priority 2015, published 2017):
Read-outs that look alike come from different tables or passages of the source. Starred links: 1 amine or outer side, 2 acyl side, 3 side chain; linkers in the order of their positions; H or OH if unused. Non-standard residues stand in square brackets, D forms with d. Residues, ends and D or L forms follow the SMILES beside them. *: point of attachment. Phe(4-CH2SO3H) = N[C@@H](Cc1ccc(CS(=O)(=O)O)cc1)C(=O)O; sY = N[C@@H](Cc1ccc(OS(=O)(=O)O)cc1)C(=O)O; C18 diacid = O=C(O)CCCCCCCCCCCCCCCCC(=O)*; d(βAsp) = O=C(O)[C@@H](CC(=O)[*:2])N[*:1]; γGlu = O=C(O)[C@H](CCC(=O)[*:2])N[*:1]; Met(O2) = CS(=O)(=O)CC[C@H](N)C(=O)O; NMeF = CN[C@@H](Cc1ccccc1)C(=O)O; dNMeD = CN[C@H](CC(=O)O)C(=O)O; Nle = CCCC[C@H](N)C(=O)O; AEEA = NCCOCCOCC(=O)O

Key:
[1] = molecular target: T1, human cholecystokinin-1 receptor (CCK-1R) (Homo sapiens, UniProt P32238); test: In vitro potency on CCK-1R, whole cell functional assay (IP1 accumulation, IP-One HTRF); assay type: cell-based
T1 construct: host or cells: 1321-N1 cells
T1 sequence (P32238 1-428): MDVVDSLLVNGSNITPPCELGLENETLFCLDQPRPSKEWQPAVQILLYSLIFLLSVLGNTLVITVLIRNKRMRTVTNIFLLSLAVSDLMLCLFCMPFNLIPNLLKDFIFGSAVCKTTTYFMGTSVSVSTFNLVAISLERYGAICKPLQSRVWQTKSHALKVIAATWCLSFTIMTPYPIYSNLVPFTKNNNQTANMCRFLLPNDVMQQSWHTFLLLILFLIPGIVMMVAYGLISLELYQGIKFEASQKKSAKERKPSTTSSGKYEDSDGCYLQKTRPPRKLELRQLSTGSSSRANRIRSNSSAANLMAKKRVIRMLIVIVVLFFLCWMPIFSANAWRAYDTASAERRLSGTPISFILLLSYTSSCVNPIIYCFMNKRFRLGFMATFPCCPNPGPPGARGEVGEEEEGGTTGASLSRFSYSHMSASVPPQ

[2] = molecular target: T2, human cholecystokinin-2 receptor (CCK-2R) (Homo sapiens, UniProt P32239); test: In vitro receptor binding to CCK-2R, SPA displacement of [125I]-CCK-8s from plasma membranes
T2 construct: host or cells: 1321-N1 cells (plasma membranes prepared by Evotec AG Hamburg)
T2 sequence (P32239 1-447): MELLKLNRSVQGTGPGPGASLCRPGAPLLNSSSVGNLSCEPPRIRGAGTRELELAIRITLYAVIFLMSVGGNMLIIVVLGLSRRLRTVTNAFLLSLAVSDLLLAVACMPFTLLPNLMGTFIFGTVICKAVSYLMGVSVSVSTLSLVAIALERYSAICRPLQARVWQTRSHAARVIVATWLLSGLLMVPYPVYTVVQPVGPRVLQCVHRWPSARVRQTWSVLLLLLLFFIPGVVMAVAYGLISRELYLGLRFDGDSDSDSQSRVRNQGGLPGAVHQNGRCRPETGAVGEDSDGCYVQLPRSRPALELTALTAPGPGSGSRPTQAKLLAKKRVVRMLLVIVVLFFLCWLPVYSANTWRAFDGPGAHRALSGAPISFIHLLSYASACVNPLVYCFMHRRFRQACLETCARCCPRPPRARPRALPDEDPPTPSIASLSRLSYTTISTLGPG

[3] = molecular target: T1, human cholecystokinin-1 receptor (CCK-1R); test: In vitro receptor binding to CCK-1R, SPA displacement of [125I]-CCK-8s from plasma membranes
Protocol: The in vitro binding affinity is a measure of the strength of attraction between a receptor and its ligand.
Displacement of radio ligand was measured as reduction in light emission from SPA beads.
The cells used in these assays were 1321-N1 cells stably expressing the CCK-1R or the CCK-2R (Perkin Elmer product numbers ES-530-A and ES-531-A, respectively see www.perkinelmer.com/Catalog/Product/ID/ES-530-A or -ES-531-A, respectively).
The cells were cultured in an incubator (95% RH (relative humidity), 5% (of standard atmospheric pressure) CO2, 37° C.) in cell culture medium (DMEM (Lonza catalogue BE-12-604F/U1), with 10% (v/v) Foetal Calf Serum (FCS, Gibco catalogue 16140-071), 1% (w/w) Sodium pyruvate (Gibco catalogue 11360-039), 500 μg/ml Geneticin® (G418) (Gibco catalogue 10131-027), 25 μg/ml Zeocin™ (Invitrogen catalogue R250-05), 1% (w/w) Pen/Strep (Gibco catalogue 15140-122)).
Plasma membranes were prepared by Evotec AG Hamburg by use of the ParrBomb (#4635, Parr Instrument Company). Cells were lysed with a lysis buffer (50 mM Tris, 2.5 mM EDTA, pH7) with added protease inhibitors (Complete Proteaseinhibitors EDTA-free (#05056489001, Roche), 1 tablet per 50 mL lysis buffer). The membrane fraction was separated by centrifugation. First, the cell lysate was centrifuged at 1000×g for 10 minutes at 4° C. The pellet was discarded and the supernatant was then centrifuged at 100.000×g for 30 minutes at 4° C. The supernatant was discarded and the pellet was re-suspended in 1 ml/5×10^8 cells ice cold membrane buffer (50 mM Tris, 320 mM Sucrose and Complete Proteaseinhibitors EDTA-free (#05056489001, Roche); pH7.4) and homogenised with dounce homogeniser. The protein concentration was determined using the Pierce™ BCA Protein Assay Kit according to kit manual, and the membrane preparation was adjust to the desired protein concentration with membrane buffer and aliquoted into pre-cooled tubes, snap-frozen in liquid nitrogen, and stored at −80° C.
CCK receptor binding assays were performed in 96-well Optiplates (Cat #6005290, PerkinElmer, Waltham, Mass., USA) in a total volume of 200 μl per well. CCK derivatives in 80% DMSO stock solutions of 800 μM were serially diluted […] in assay buffer (50 mM Tris/HCl, 4.5 mM MgCl2, […], 0.02% Tween 20, 0.25% ovalbumin, 0.1% pluronic F-68, pH 7.4) to final assay concentrations ranging from 10^−5 M (ten μM) to 10^−12 M (one pM).
Fifty μl of reference or test compounds were added to the Optiplates (using technical duplicates, i.e. two wells of each sample, one data point being the average of two wells), followed by addition of 150 μl of the mixture of SPA bead, radio ligand, and plasma membrane. The plates were sealed and incubated in the dark at +22° C. for 2 hours on a IKA MTS plate shaker (IKA-Werke D-79219 Staufen) set at 300 rpm and thereafter centrifuged at 1500 rpm for 10 minutes in a Heraeus Multifuge 3s centrifuge. SPA bead light emission was measured in a TopCount NXT (PerkinElmer) for 2 min/well after a delay of 60 min.
As a measure of compound affinity, calculations were performed in order to determine the half maximal inhibitory concentration (the IC50 value).
The data from the TopCounter were given as counts per minute (CPM). The CPM was plotted as a function of the concentration of compound. Dose-response curves were obtained, and IC50 values were calculated, by a nonlinear three-parameter logistic equation (log(agonist) vs response) with hillslope=−1, and shared top and bottom using the software programme GraphPad Prism v 6.0 (Graph Pad software, La Jolla, Calif., USA). The highest dose tested was 10^−5 M (1×10^7 pM).
The preference of a specific compound for the CCK-1 receptor, or the CCK-1R selectivity, may be defined as IC50 (CCK-2R)/IC50 (CCK-1R).
A minimum of three biological replicates was measured for each test compound on separate assay plates.

[4] = molecular target: T2, human cholecystokinin-2 receptor (CCK-2R); test: In vitro potency on CCK-2R, whole cell functional assay (IP1 accumulation, IP-One HTRF); assay type: cell-based
[5] = displacement of [125I]-CCK-8s, plasma membranes of 1321-N1 cells expressing CCK-2R, highest dose tested 1×10^7 pM, read-out: IC50 (CCK-2R)
[6] = displacement of [125I]-CCK-8s, plasma membranes of 1321-N1 cells expressing CCK-1R, read-out: IC50 (CCK-1R)
[7] = 1321-N1 cells stably expressing CCK-2R, IP1 accumulation, highest dose tested 1×10^6 pM, read-out: EC50 (CCK-2R)

| EC50 [4, 7] | Compound | IC50 [2] | IC50 [3] | EC50 [4] | other results |
| --- | --- | --- | --- | --- | --- |
| – | CCCC[C@H](NC(=O)[C@H](Cc1ccc(CS(=O)(=O)O)cc1)NC(=O)[C@H](CC(=O)O)NC(=O)COCCOCCNC(=O)[C@H](CCCCN)NC(=O)COCCOCCNC(=O)COCCOCCNC(=O)CC[C@H](NC(=O)CCCCCCCCCCCCCCCCC(=O)O)C(=O)O)C(=O)NCC(=O)N[C@@H](Cc1c[nH]c2ccccc12)C(=O)N[C@@H](CCCC)C(=O)N(C)[C@H](CC(=O)O)C(=O)N(C)[C@@H](Cc1ccccc1)C(N)=O [Example 19, 2-[2-[2-[[2-[2-[2-[[(4S)-4-Carboxy-4-(17-carboxyheptadecanoylamino)butanoyl]amino]ethoxy]ethoxy]acetyl]amino]ethoxy]ethoxy]acetyl-Lys-2-[2-(2-aminoethoxy)ethoxy]acetyl-Asp-Phe(4-sulfomethyl)-Nle-Gly-Trp-Nle-DMeAsp-MePhe-amide] ({C18 diacid-γGlu-AEEA-AEEA}-K[AEEA]D[Phe(4-CH2SO3H)][Nle]GW[Nle][dNMeD][NMeF]-NH2) | – | – | – | EC50 [1]: 0.21 nM |
| > 1000 nM | CCCC[C@H](NC(=O)[C@H](Cc1ccc(CS(=O)(=O)O)cc1)NC(=O)C[C@@H](NC(=O)COCCOCCNC(=O)COCCOCCNC(=O)CC[C@H](NC(=O)CCCCCCCCCCCCCCCCC(=O)O)C(=O)O)C(=O)O)C(=O)NCC(=O)N[C@@H](Cc1c[nH]c2ccccc12)C(=O)N[C@@H](CCCC)C(=O)N(C)[C@H](CC(=O)O)C(=O)N(C)[C@@H](Cc1ccccc1)C(N)=O [Example 27, 2-[2-[2-[[2-[2-[2-[[(4S)-4-Carboxy-4-(17-carboxyheptadecanoylamino)butanoyl]amino]ethoxy]ethoxy]acetyl]amino]ethoxy]ethoxy]acetyl-DbAsp-Phe(4-sulfomethyl)-Nle-Gly-Trp-Nle-DMeAsp-MePhe-amide] ({C18 diacid-γGlu-AEEA-AEEA-d(βAsp)}-[Phe(4-CH2SO3H)][Nle]GW[Nle][dNMeD][NMeF]-NH2) | – | – | – | IC50 [2, 5]: > 10000 nM; IC50 [3, 6]: 0.13 nM |
| – | CC(C)C[C@H](NC(=O)[C@H](Cc1ccc(OS(=O)(=O)O)cc1)NC(=O)[C@H](CC(=O)O)NC(=O)COCCOCCNC(=O)COCCOCCNC(=O)CC[C@H](NC(=O)CCCCCCCCCCCCCCCCC(=O)O)C(=O)O)C(=O)NCC(=O)N[C@@H](Cc1c[nH]c2ccccc12)C(=O)N[C@@H](C)C(=O)N(C)[C@H](CC(=O)O)C(=O)N(C)[C@@H](Cc1ccccc1)C(N)=O [Example 40, 2-[2-[2-[[2-[2-[2-[[(4S)-4-Carboxy-4-(17-carboxyheptadecanoylamino)butanoyl]amino]ethoxy]ethoxy]acetyl]amino]ethoxy]ethoxy]acetyl-Asp-sTyr-Leu-Gly-Trp-Ala-DMeAsp-MePhe-amide] ({C18 diacid-γGlu-AEEA-AEEA}-D[sY]LGWA[dNMeD][NMeF]-NH2) | > 10000 nM | 0.65 nM | 880 nM | – |
| – | CC(C)C[C@H](NC(=O)[C@H](Cc1ccc(OS(=O)(=O)O)cc1)NC(=O)[C@@H](N)CC(=O)O)C(=O)NCC(=O)N[C@@H](Cc1c[nH]c2ccccc12)C(=O)N[C@@H](CCC(N)=O)C(=O)N(C)[C@H](CC(=O)O)C(=O)N(C)[C@@H](Cc1ccccc1)C(N)=O [Example 62, Asp-sTyr-Leu-Gly-Trp-Gln-DMeAsp-MePhe-amide] (H-D[sY]LGWQ[dNMeD][NMeF]-NH2) | > 10000 nM | 0.075 nM | > 1000 nM | – |
| – | CC(C)C[C@H](NC(=O)[C@H](Cc1ccc(OS(=O)(=O)O)cc1)NC(=O)[C@@H](N)CC(=O)O)C(=O)NCC(=O)N[C@@H](Cc1c[nH]c2ccccc12)C(=O)N[C@H](C(=O)N(C)[C@H](CC(=O)O)C(=O)N(C)[C@@H](Cc1ccccc1)C(N)=O)C(C)C [Example 65, Asp-sTyr-Leu-Gly-Trp-Val-DMeAsp-MePhe-amide] (H-D[sY]LGWV[dNMeD][NMeF]-NH2) | > 10000 nM | 0.62 nM | > 1000 nM | – |
| – | CCCC[C@H](NC(=O)[C@H](Cc1c[nH]c2ccccc12)NC(=O)CNC(=O)[C@H](CCCNC(=N)N)NC(=O)[C@H](Cc1ccc(OS(=O)(=O)O)cc1)NC(=O)[C@@H](N)CC(=O)O)C(=O)N(C)[C@H](CC(=O)O)C(=O)N(C)[C@@H](Cc1ccccc1)C(N)=O [Example 68, Asp-sTyr-Arg-Gly-Trp-Nle-DMeAsp-MePhe-amide] (H-D[sY]RGW[Nle][dNMeD][NMeF]-NH2) | – | – | – | EC50 ([1]; 1321-N1 cells stably expressing CCK-1R, IP1 accumulation, average of min. three replicates, read-out: EC50 (CCK-1R)): 0.21 nM |
| > 1000 nM | CCCC[C@H](NC(=O)[C@H](Cc1c[nH]c2ccccc12)NC(=O)CNC(=O)[C@H](CC(C)C)NC(=O)[C@H](Cc1ccc(OS(=O)(=O)O)cc1)NC(=O)[C@@H](N)CCC(=O)O)C(=O)N(C)[C@H](CC(=O)O)C(=O)N[C@@H](Cc1ccccc1)C(N)=O [Example 90, Glu-sTyr-Leu-Gly-Trp-Nle-DMeAsp-Phe-amide] (H-E[sY]LGW[Nle][dNMeD]F-NH2) | – | – | – | IC50 [2, 5]: > 10000 nM; IC50 [3, 6]: 0.029 nM |

| Compound | EC50 [4, 7] | IC50 [2] | IC50 [3] | EC50 [4] | other results |
| --- | --- | --- | --- | --- | --- |
| CC(C)C[C@H](NC(=O)[C@H](Cc1ccc(OS(=O)(=O)O)cc1)NC(=O)[C@@H](N)CC(=O)O)C(=O)NCC(=O)N[C@@H](Cc1c[nH]c2ccccc12)C(=O)N[C@@H](CCS(C)(=O)=O)C(=O)N(C)[C@H](CC(=O)O)C(=O)N(C)[C@@H](Cc1ccccc1)C(N)=O [Example 63, Asp-sTyr-Leu-Gly-Trp-Met(O2)-DMeAsp-MePhe-amide] (H-D[sY]LGW[Met(O2)][dNMeD][NMeF]-NH2) | > 1000 nM | > 10000 nM | 0.54 nM | – | – |
